# Reference: US4647576A, “Trans-6-[2-(substitutedpyrrol-1-yl)alkyl]-pyran-2-one inhibitors of cholesterol synthesis” (Warner-Lambert Company, priority 1984, dated 1987)
# Key:
# [1] = system: sterol synthesis by rat liver homogenate; test: CSI screen: inhibition of sterol synthesis (14C-acetate incorporation into nonsaponifiable lipid) by rat liver homogenate; type: biochemical; conditions: one-hour period, footnote: adjusted for a standard IC50 value for compactin (internal standard)
# Experimental: The ability of compounds of the present invention to inhibit the biosynthesis of cholesterol was measured by two methods. A first method (designated CSI screen) utilized the procedure described by R. E. Dugan et al., Archiv. Biochem. Biophys., (1972), 152, 21-27. In this method, the level of HMG-CoA enzyme activity in standard laboratory rats is increased by feeding the rats a chow diet containing 5% cholestyramine for four days, after which the rats are sacrificed.
# The rat livers are homogenized, and the incorporation of cholesterol-^14 C-acetate into nonsaponifiable lipid by the rat liver homogenate is measured. The micromolar concentration of compound required for 50% inhibition of sterol synthesis over a one-hour period is measured, and expressed as an IC50 value.
# HMG-CoA reductase = target: T1, HMG-CoA reductase (Rattus norvegicus, UniProt P51639); test: COR screen: conversion of 14C-HMG-CoA to 14C-mevalonate by purified HMG-CoA reductase; type: biochemical; conditions: purified enzyme preparation, footnote: adjusted for a standard IC50 value for compactin (internal standard)
# T1 sequence (P51639 1-887): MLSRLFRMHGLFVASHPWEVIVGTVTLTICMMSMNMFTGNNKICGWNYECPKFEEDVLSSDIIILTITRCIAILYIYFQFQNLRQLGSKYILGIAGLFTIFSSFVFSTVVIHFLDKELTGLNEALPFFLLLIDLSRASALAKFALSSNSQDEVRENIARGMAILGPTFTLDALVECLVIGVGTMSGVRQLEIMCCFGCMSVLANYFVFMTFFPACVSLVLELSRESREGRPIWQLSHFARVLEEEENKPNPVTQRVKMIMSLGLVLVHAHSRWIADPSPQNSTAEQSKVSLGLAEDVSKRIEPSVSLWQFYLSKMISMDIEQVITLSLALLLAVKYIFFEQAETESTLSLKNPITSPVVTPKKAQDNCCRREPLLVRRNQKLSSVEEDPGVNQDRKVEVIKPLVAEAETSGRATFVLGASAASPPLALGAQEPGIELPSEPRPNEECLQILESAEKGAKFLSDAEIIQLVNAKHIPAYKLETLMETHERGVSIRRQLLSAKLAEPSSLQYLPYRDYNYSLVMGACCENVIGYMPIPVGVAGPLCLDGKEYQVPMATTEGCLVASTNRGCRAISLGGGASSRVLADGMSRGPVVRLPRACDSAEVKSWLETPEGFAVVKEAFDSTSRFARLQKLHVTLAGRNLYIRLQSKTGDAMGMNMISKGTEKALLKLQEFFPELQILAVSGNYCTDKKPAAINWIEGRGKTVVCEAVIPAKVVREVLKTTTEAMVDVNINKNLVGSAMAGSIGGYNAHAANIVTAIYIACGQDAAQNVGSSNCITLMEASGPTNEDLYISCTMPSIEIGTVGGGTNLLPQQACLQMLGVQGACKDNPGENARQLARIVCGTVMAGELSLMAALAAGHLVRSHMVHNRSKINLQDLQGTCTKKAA
# Experimental: A second method (designated COR screen) employed the procedure detailed by T. Kita, et al., J. Clin. Invest., (1980), 66: 1094-1100. In this method, the amount of ^14 C-HMG-CoA converted to ^14 C-mevalonate in the presence of a purified enzyme preparation of HMG-CoA reductase was measured. The micromolar concentration of compound required for 50% inhibition of cholesterol synthesis was measured and recorded as an IC50 value.
SMILES,IC50 [1] [nM],IC50 (HMG-CoA reductase) [nM]
"CC(C)c1ccc(-c2ccc(F)cc2)n1CC[C@H]1C[C@H](O)CC(=O)O1 (relative stereo) [Compound 1, trans-6-[2-[2-(4-fluorophenyl)-5-(1-methylethyl)-1H-pyrrol-1-yl]ethyl]tetrahydro-4-hydroxy-2H-pyran-2-one]",480,280
"CC(C)c1c(Cl)c(Cl)c(-c2ccc(F)cc2)n1CC[C@H]1C[C@H](O)CC(=O)O1 (relative stereo) [Compound 2, 6-[2-[2-(4-fluorophenyl)-3,4-dichloro-5-(1-methylethyl)-1H-pyrrol-1-yl]ethyl]tetrahydro-4-hydroxy-trans-2H-pyran-2-one]",160,24
"CC(C)c1c(Br)c(Br)c(-c2ccc(F)cc2)n1CC[C@H]1C[C@H](O)CC(=O)O1 (relative stereo) [Compound 3, 6-[2-[2-(4-fluorophenyl)-3,4 dibromo-5-(1-methylethyl)-1H-pyrrol-1-yl]ethyl]tetrahydro-4-hydroxy-trans-2H-pyran-2-one]",220,1

# Next, values leading:
IC50 [1] [nM],IC50 (HMG-CoA reductase) [nM],SMILES
110,80,"COC(=O)c1c(C(=O)OC)c(C(C)C)n(CC[C@@H]2C[C@@H](O)CC(=O)O2)c1-c1ccc(F)cc1 (relative stereo) [Compound 4, Dimethyl-2-(4-Fluorophenyl)-5-(1-methylethyl)-1-[2-(tetrahydro-4-hydroxy-6-oxo-2H-pyran-2-yl)ethyl]-1H-pyrrole-3,4-dicarboxylate]"
26,28,"CC[C@H](C)C(=O)O[C@H]1CCC=C2C=C[C@H](C)[C@H](CC[C@@H]3C[C@@H](O)CC(=O)O3)[C@H]21 [Compound 5, Compactin, reference compound]"
